Measurements: patent US10214492B2, “Heterocyclic inhibitors of MCT4” (Vettore, LLC, priority 2016, dated 2019)

Assays:
[1] = Metabolic stability in mouse liver microsomes (in vitro t1/2); type: in vitro ADME; conditions: for Mouse microsome t1/2, min / half-life at 2 µM: mouse liver microsomes 0.5 mg/mL, 2 μM compound; for Mouse microsome % 60 min: mouse liver microsomes; for half-life at 2 µM: read-out: Mouse microsome t1/2, min
Summary of the method: (§1)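 Liver microsomes (0.5 mg/mL final) incubated with test compound at 2 μM final plus NADPH; samples taken at 0, 15, 30, 45 and 60 min. Parent remaining quantified by LC-MS/MS; k from ln(% remaining) vs time regression, in vitro t1/2 = −0.693/k.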

MCT4 = MCT4 (Homo sapiens (Human), UniProt O15427); test: Assay 3: MCT4-mediated lactate transport in MDA-MB-231 breast cancer cells; type: cell-based; conditions: MDA-MB-231 cells; lactate transport
Summary of the method: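 MDA-MB-231 cells loaded with BCECF-AM, 5 min at 37° C, washed and resuspended in Tyrode's Solution, pH 7.4. MCT4 lactate/proton symport followed as the intracellular pH change reported by BCECF fluorescence.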

[2] = Adjuvant-induced arthritis model in rat: Mechanical Allodynia test (MA, Von Frey); type: in vivo; conditions: SD rat, CFA-induced arthritis; PO 3 days post CFA; compared to Dexamethasone
MCT1 = MCT1 (Homo sapiens (Human), UniProt P53985); test: Assay 4: MCT1-mediated lactate transport in BT20 breast cancer cells; type: cell-based; conditions: Table 27
Summary of the method: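 BT20 cells loaded with BCECF-AM (30 mM DMSO stock) for 5 min at 37° C, washed and resuspended in Tyrode's Solution pH 7.4. Lactate uptake tracked via BCECF intracellular pH signal after adding 10 mM L-lactate.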

[3] = Adjuvant-induced arthritis model in rat: Difference of Weight Bearing test (DWB); type: in vivo; conditions: SD rat, CFA-induced arthritis; PO 3 days post CFA; compared to Dexamethasone
[4] = Pharmacokinetic assay in rat (IV 3 mg/kg, PO 10 mg/kg); type: in vivo; conditions: Male Sprague-Dawley rat; for Rat F: oral bioavailability; for Rat F / half-life: PO 10 mg/kg; for half-life / Vd: plasma; for half-life: read-out: Rat t1/2 (converted); for Vd: volume of distribution, read-out: Rat Vss
From the text: (§2) The following are assays that may be used to evaluate the pharmacokinetic properties of Formula (I) in mouse or rat. The assays follow a common procedure recited below.
(§3) 1. […] For PO (oral gavage), DMSO/PEG400 (10:90). Formulations freshly prepared on the day of dosing or prior to dosing. Storage at room temperature.
(§4) 2. Test Species: For Mouse: Male CD1 strain, approximately 6-8 weeks in age, approximately 20-30 g. For Rat: Male Sprague-Dawley strain, approximately 6-8 weeks in age, approximately 200-300 g.
(§5) 3. Dose Level: For IV, 3 mg/kg. For PO, 10 mg/kg.
(§6) 4. Number of animals: 3 per assay.
(§7) 5. PK time points: For IV (plasma): 5 min, 15 min, 1, 2, 4, 6, 8, 24 h post dose. For PO (plasma): 15 min, 30 min, 1, 2, 4, 6, 8, 24 h post dose.
(§8) 6. Blood Sample Collection and Processing. Blood was collected (˜0.2 mL per time point) from jugular vein. Blood of each sample was transferred into plastic micro centrifuge tubes containing anticoagulant of EDTA-K2. Blood samples were centrifuged at 2,000 g for 5 minutes at 4° C. to obtain plasma.
(§9) 7. Samples Analysis: Plasma samples were analyzed using LC/MS/MS method, and pharmacokinetic parameters (half-life: t1/2; oral bioavailability: F; volume of distribution: Vss).

[5] = Metabolic stability in rat liver microsomes (in vitro t1/2); type: in vitro ADME; conditions: for half-life at 2 µM: read-out: Rat microsome t1/2, min; for Rat microsome % 60 min: rat liver microsomes
Method: The following are assays that may be used to evaluate the metabolic stability of compounds of Formula (I) in human, rat, or mouse microsomes. The assays follow a common procedure recited below. 1. […] Two separated experiments were performed as follows. a) With NADPH: 10 μL of 20 mg/mL liver microsomes and 40 μL of 10 mM NADPH were added to the incubations. […] The final concentration of microsomes was 0.5 mg/mL. 3. The reaction was started with the addition of 4 μL of 200 μM control compound or test compound solutions. Verapamil was used as positive control in this study. The final concentration of test compound or control compound was 2 μM. 4. Aliquots of 50 μL were taken from the reaction solution at 0, 15, 30, 45 and 60 min. […] Samples were centrifuged at 3,220 g for 40 minutes. A 90 μL aliquot of the supernatant was mixed with 90 μL of ultra-pure H2O and then used for LC-MS/MS analysis. 5. Data analysis. All calculations were carried out using Microsoft Excel. Peak areas were determined from extracted ion chromatograms. The slope value, k, was determined by linear regression of the natural logarithm of the remaining percentage of the parent drug vs. incubation time curve. The in vitro half-life (in vitro t1/2) was determined from the slope value: in vitro t1/2=−(0.693)/k.

[6] = Metabolic stability in human liver microsomes (in vitro t1/2); type: in vitro ADME; conditions: for half-life at 2 µM: human liver microsomes 0.5 mg/mL, 2 μM compound, read-out: Human microsome t1/2, min; for Human microsome % 60 min: human liver microsomes
Summary of the method: as §1

[7] = Pharmacokinetic assay in mouse (IV 3 mg/kg, PO 10 mg/kg); type: in vivo; conditions: Male CD1 mouse; for Mouse F: oral bioavailability; for Mouse F / half-life: PO 10 mg/kg; for half-life / Vd: plasma; for half-life: read-out: Mouse t1/2 (converted); for Vd: volume of distribution, read-out: Mouse Vss
From the text: as §2, §3, §4, §5, §6, §7, §8, §9

[8] = rat liver microsomes 0.5 mg/mL, 2 μM compound

MCT4, sequence (O15427 whole entry, looked up): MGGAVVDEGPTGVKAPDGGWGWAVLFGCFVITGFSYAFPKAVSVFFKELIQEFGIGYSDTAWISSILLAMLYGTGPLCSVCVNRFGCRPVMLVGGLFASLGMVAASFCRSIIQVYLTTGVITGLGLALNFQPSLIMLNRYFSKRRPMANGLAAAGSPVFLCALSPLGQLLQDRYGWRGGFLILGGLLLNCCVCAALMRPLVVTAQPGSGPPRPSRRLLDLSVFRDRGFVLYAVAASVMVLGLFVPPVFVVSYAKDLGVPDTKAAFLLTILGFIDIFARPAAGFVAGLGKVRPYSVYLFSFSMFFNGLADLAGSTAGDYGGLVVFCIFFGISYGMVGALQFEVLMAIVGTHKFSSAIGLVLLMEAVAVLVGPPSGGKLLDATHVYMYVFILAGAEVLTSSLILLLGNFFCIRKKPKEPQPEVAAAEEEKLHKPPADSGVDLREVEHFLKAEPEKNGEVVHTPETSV
MCT4, sequence (P35613 whole entry partner, looked up): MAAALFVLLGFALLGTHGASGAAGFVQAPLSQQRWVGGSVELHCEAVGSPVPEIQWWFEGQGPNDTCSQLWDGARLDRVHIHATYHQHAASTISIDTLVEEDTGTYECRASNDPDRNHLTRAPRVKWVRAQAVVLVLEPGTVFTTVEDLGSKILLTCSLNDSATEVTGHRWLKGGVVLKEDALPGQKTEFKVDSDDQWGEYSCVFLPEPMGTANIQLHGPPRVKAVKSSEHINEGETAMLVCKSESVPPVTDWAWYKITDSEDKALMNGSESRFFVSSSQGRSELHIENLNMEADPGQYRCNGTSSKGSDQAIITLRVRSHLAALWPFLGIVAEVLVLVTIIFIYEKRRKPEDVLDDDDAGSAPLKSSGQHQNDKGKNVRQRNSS
MCT1, sequence (P53985 whole entry): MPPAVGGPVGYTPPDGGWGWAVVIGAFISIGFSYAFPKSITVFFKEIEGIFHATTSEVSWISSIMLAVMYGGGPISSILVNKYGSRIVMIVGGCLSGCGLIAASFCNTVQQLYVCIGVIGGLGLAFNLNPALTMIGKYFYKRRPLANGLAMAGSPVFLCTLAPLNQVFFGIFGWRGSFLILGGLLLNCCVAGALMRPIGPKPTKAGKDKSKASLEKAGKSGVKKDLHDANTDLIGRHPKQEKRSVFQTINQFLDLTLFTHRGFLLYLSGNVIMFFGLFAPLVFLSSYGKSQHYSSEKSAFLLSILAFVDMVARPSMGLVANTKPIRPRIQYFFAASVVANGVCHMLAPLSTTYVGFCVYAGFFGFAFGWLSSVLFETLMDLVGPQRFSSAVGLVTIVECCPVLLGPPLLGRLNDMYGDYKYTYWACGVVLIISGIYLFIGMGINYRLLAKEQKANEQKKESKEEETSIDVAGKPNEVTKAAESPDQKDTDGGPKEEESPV
MCT1, sequence (P35613 140-385 partner): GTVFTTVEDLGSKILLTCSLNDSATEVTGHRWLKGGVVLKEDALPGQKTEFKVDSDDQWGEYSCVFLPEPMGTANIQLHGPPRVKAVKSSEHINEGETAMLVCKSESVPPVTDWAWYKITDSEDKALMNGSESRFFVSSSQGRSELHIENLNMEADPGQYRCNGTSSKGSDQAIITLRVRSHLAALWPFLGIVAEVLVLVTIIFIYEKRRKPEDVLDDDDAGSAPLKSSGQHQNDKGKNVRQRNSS

SMILES | Mouse microsome t1/2, min [1] | Mouse microsome % 60 min [1] [%] | IC50 (MCT4) [nM] | Mechanical Allodynia (Von Frey), Minimal Efficacious Dose [2] [mg/kg] | IC50 (MCT1) [nM] | Difference in Weight Bearing, Minimal Efficacious Dose [3] [mg/kg] | Rat F [4] [%] | half-life [4] [h] | Vd [4] [L/kg] | half-life at 2 µM [5, 8] [h] | Rat microsome % 60 min [5] [%] | half-life at 2 µM [6] [h] | Human microsome % 60 min [6] [%] | half-life at 2 µM [1] [h] | Mouse F [7] [%] | half-life [7] [h] | Vd [7] [L/kg] | Rat microsome t1/2, min [5, 8]
Cc1ccccc1-n1nc(COC(C)(C)C(=O)O)cc1-c1cccc(OC2CCC2)c1 [Example 161, 2-([5-(3-Cyclobutoxyphenyl)-1-(2-methyl-phenyl)-1H-pyrazol-3-yl]methoxy)-2-methylpropanoic acid] | ∞ | 99 | 3.3 | ≤10 | 22000 | ≤10 | 61 | 5.7 | 0.32 | 4.32 | 80 | 3.23 | 82 |  |  |  |  | 
Cn1ncc2cccc(-n3nc(COC(C)(C)C(=O)O)cc3-c3cccc(OCC(C)(C)C)c3)c21 [Example 167, 2-([5-[3-(2,2-dimethylpropoxy)phenyl]-1-(1-methyl-1H-indazol-7-yl)-1H-pyrazol-3-yl]-methoxy)-2-methylpropanoic acid] |  | 97 | 0.59 |  | 36000 |  | 72 | 2.2 | 1.2 | 1.23 | 72 | 4.17 | 84 | 7.17 | 24 | 1.7 | 2.6 | 
CC(C)(OCc1cc(-c2cccc(OC3CCC3)c2)n(-c2ccccc2Cl)n1)C(=O)O [Example 175, 2-([1-(2-Chlorophenyl)-5-(3-cyclobutoxy-phenyl)-1H-pyrazol-3-yl]methoxy)-2-methylpropanoic acid] |  | 94 |  | >10 |  | >10 | 48 | 4.2 | 0.4 | 5.25 | 87 | 3.53 | 83 | 11.8 |  |  |  | 
COc1cc(OC)cc(-c2cc(COC(C)(C)C(=O)O)nn2-c2ccccc2Cl)c1 [Example 179, 2-([1-(2-Chlorophenyl)-5-(3,5-dimethoxy-phenyl)-1H-pyrazol-3-yl]methoxy)-2-methylpropanoic acid] | ∞ | 98 | 13 | <10 | > 100000 | ≤10 | 76 | 2.2 | 0.3 | 5.3 | 85 | 10.7 | 93 |  |  |  |  | 
CCOc1ccccc1Cn1nc(COC(C)(C)C(=O)O)cc1-c1cc(OC)cc(OC)c1 [Example 211] |  | 43 | 2.4 |  | 20000 |  | 55 | 3.6 | 3.6 | 1.22 | 57 | 3 | 78 | 0.817 | 57 | 1.9 | 1.5 | 
CCn1ncc2ccc(-c3cc(COC(C)(C)C(=O)O)nn3-c3ccccc3N3CCC3)cc21 [Example 228, 2-([1-(2-(Azetidin-1-yl)phenyl]-5-(1-ethyl-1H-indazol-6-yl)-1H-pyrazol-3-yl]-methoxy)-2-methylpropanoic acid] |  | 96 | 5.9 |  | 31000 |  | 94 | 3.1 | 1.3 | 6.58 | 91 | 2.17 | 71 | 12.8 | 100 | 4.4 | 2 | 
CCCn1ncc2ccc(-c3cc(COC(C)(C)C(=O)O)nn3-c3ccccc3N3CCC3)cc21 [Example 246, 2-([1-[2-(Azetidin-1-yl)phenyl]-5-(1-propyl-1H-indazol-6-yl)-1H-pyrazol-3-yl]methoxy)-2-methylpropanoic acid] |  | 81 | 3.1 |  | 32000 |  | 52 | 4.7 | 1.7 | 1.82 | 69 | 1.58 | 65 | 2.8 |  |  |  | 
COc1cc(OC)cc(-c2cc(COC(C)(C)C(=O)O)nn2-c2ccccc2N2CCC2)c1 [Example 251, 2-((1-(2-(Azetidin-1-yl)phenyl)-5-(3,5-dimethoxyphenyl)-1H-pyrazol-3-yl)methoxy)-2-methylpropanoic acid] |  | 63 | 5.6 |  | 98000 |  | 98 | 3 | 0.38 | 3.02 | 83 | 3.02 | 77 | 1.55 |  |  |  | 
CCn1ncc2ccc(-c3cc(CO[C@@](C)(CC)C(=O)O)nn3Cc3ccccc3Cl)cc21 [Example 257, (S)-2-((1-(2-chlorobenzyl)-5-(1-ethyl-1H-indazol-6-yl)-1H-pyrazol-3-yl)methoxy)-2-methylbutanoic acid] | ∞ | 102 | 0.35 |  | 19000 |  | 76 | 2.7 | 1.6 |  | 103 | 21.6 | 96 |  | 76 | 3.6 | 2.8 | ∞
CCn1ncc2ccc(-c3cc(CO[C@](C)(CC)C(=O)O)nn3-c3ccccc3N3CCC3)cc21 [Example 269, (2R)-2-([1-[2-(Azetidin-1-yl)phenyl]-5-(1-ethyl-1H-indazol-6-yl)-1H-pyrazol-3-yl]methoxy)-2-methylbutanoic acid] |  |  | 1 |  | 58000 |  |  |  |  |  |  |  |  |  | 100 | 3.3 | 1.3 | 
